Assay results published in BindingDB's records for doi:10.1021/acsmedchemlett.5b00489 (Peking Union Medical College, 2016).

Experiment: Antagonist activity at human recombinant CXCR2 assessed as inhibition of CXCL1-induced neutrophil chemotaxis after 45 mins by calcein-AM dye based plate reader method

SMILES | IC50 [nM]
CN1CCC(S(=O)(=O)c2c(Cl)ccc(NC(=O)Nc3cccc(Cl)c3Cl)c2O)CC1 | 158
CN1CC[C@H](S(=O)(=O)c2c(Cl)ccc(NC(=O)Nc3cccc(Cl)c3Cl)c2O)C1 | 251
CN1CCN(S(=O)(=O)c2c(Cl)ccc(NC(=O)Nc3cccc(Cl)c3Cl)c2O)CC1 | 1000
CN1CCN(S(=O)(=O)c2c(Cl)ccc(NC(=O)Nc3cccc(F)c3Cl)c2O)CC1 | 316
CCN1CCN(S(=O)(=O)c2c(Cl)ccc(NC(=O)Nc3cccc(F)c3Cl)c2O)CC1 | 2000
CC(C)N1CCN(S(=O)(=O)c2c(Cl)ccc(NC(=O)Nc3cccc(F)c3Cl)c2O)CC1 | 2000
C[C@@H]1CN(S(=O)(=O)c2c(Cl)ccc(NC(=O)Nc3cccc(Cl)c3Cl)c2O)C[C@H](C)O1 | 15800
CC(C)S(=O)(=O)c1c(Cl)ccc(NC(=O)Nc2cccc(F)c2Cl)c1O | 10
CC(C)S(=O)(=O)c1c(Cl)ccc(NC(=O)Nc2cccc(Cl)c2Cl)c1O | 158
CC(C)(C)S(=O)(=O)c1c(Cl)ccc(NC(=O)Nc2cccc(F)c2Cl)c1O | 40
O=C(Nc1ccc(Cl)c(S(=O)(=O)C2CCCC2)c1O)Nc1cccc(F)c1Cl | 25
O=C(Nc1ccc(Cl)c(S(=O)(=O)C2CCCCC2)c1O)Nc1cccc(F)c1Cl | 79
O=C(Nc1ccc(Cl)c(S(=O)(=O)C2CCOC2)c1O)Nc1cccc(Cl)c1Cl (configuration not stated) | 7.9
O=C(Nc1ccc(Cl)c(S(=O)(=O)C2CCOCC2)c1O)Nc1cccc(Cl)c1Cl | 6.3
CN1CC[C@H](S(=O)(=O)c2c(Cl)ccc(NC(=O)Nc3cccc(F)c3Cl)c2O)C1 | 79
CN1CCC[C@H](S(=O)(=O)c2c(Cl)ccc(NC(=O)Nc3cccc(F)c3Cl)c2O)CC1 | 100
CN1CC2(CC(S(=O)(=O)c3c(Cl)ccc(NC(=O)Nc4cccc(F)c4Cl)c3O)C2)C1 | 631
O=C(Nc1ccc(Cl)c(C(=O)N2CCCC2)c1O)Nc1cccc(F)c1Cl | 7.9
O=C(Nc1ccc(Cl)c(C(=O)N2CCCCC2)c1O)Nc1cccc(F)c1Cl | 6.3

Further compounds by falling IC50, results first:

IC50 [nM] | SMILES
10000 | O=C(Nc1ccc(Cl)c(S(=O)(=O)N2CCNCC2)c1O)Nc1cccc(Cl)c1Cl
6310 | CCS(=O)(=O)c1c(Cl)ccc(NC(=O)Nc2cccc(Cl)c2Cl)c1O
3160 | C[C@@H]1CN(S(=O)(=O)c2c(Cl)ccc(NC(=O)Nc3cccc(F)c3Cl)c2O)C[C@H](C)O1
316 | NS(=O)(=O)c1c(Cl)ccc(NC(=O)Nc2cccc(Cl)c2Cl)c1O
158 | CCN1CCC(S(=O)(=O)c2c(Cl)ccc(NC(=O)Nc3cccc(F)c3Cl)c2O)CC1
25 | CN1CCC(S(=O)(=O)c2c(Cl)ccc(NC(=O)Nc3cccc(F)c3Cl)c2O)CC1
25 | CN1CCC2(CCC(S(=O)(=O)c3c(Cl)ccc(NC(=O)Nc4cccc(F)c4Cl)c3O)CC2)CC1
13 | O=C(Nc1ccc(Cl)c(S(=O)(=O)C2CCC2)c1O)Nc1cccc(F)c1Cl
